The source of these data is US20200199647A1, “ASSAY FOR SCREENING MODULATORS OF HOLOPHOSPHATASE ACTIVITY” (UNITED KINGDOM RESEARCH AND INNOVATION, priority 2017, published 2020).

One assay has as its target T1, R15A-PP1c (Homo sapiens, UniProt O75807).
T1 construct: PPP1R15A amino acids 325-636 (R15A); His6 (C); made in house; host or cells: E. coli BL21 pLysS (R15A, eIF2α); E. coli BL21/pGro7 (PP1c)
In words: In vitro dephosphorylation of P-eIF2α by recombinant R15A-PP1c holophosphatase (10 nM PP1c). The format is biochemical. Conditions: PP1c 10 nM, 1 μM P-eIF2α, compounds 100 μM, 30° C., 16 h. The procedure:
(§1) PP1c was diluted to the appropriate concentration (as indicated in the figure legends) in dephosphorylation buffer immediately prior to use. Dephosphorylation reactions were carried out by pre-incubating diluted PP1c in the presence or absence of regulatory subunits (either […]), and/or compounds (all at 100 μM, except for Salubrinal which was used at 30 μM), for 15′ at RT. All compounds were diluted in DMSO, and DMSO vehicle was used in all control experiments.
(§2) The reaction was initiated by the addition of 1 μM P-eIF2α or ^33P Phosphorylase a substrates and then incubated at 30° C. for 16 h with shaking at 350 rpm. Reactions were stopped by addition of 4× Laemmli sample buffer. eIF2α samples were analyzed by immunoblotting or Phos-tag gels. […] Samples in FIG. 8 and FIG. 16 were run on a 15% SuperSep Phos-tag acrylamide gel (Alpha Laboratories) and visualized by staining with InstantBlue Protein Stain.

A further assay concerns the target T2, R15B-PP1c (Homo sapiens, UniProt Q5SWA1).
T2 construct: PPP1R15B amino acids 340-698 (R15B); His6 (C); made in house; host or cells: E. coli BL21 pLysS (R15B, eIF2α); E. coli BL21/pGro7 (PP1c)
As to the kind of experiment: In vitro dephosphorylation of P-eIF2α by recombinant R15B-PP1c holophosphatase (10 nM PP1c). The format is biochemical. Particulars: PP1c 10 nM, 1 μM P-eIF2α, compounds 100 μM, 30° C., 16 h. The method, then: as §1
The reaction was initiated by the addition of 1 μM P-eIF2α or ^33P Phosphorylase a substrates and then incubated at 30° C. for 16 h with shaking at 350 rpm. Reactions were stopped by addition of 4× Laemmli sample buffer. eIF2α samples were analyzed by immunoblotting or Phos-tag gels. P-eIF2α dephosphorylation was analysed by immunoblotting using anti-Phospho-eIF2α (SerS1) (#9721) (Cell Signaling) and anti-eIF2α (ab26197) (AbCam) antibodies. Samples in FIG. 8 and FIG. 16 were run on a 15% SuperSep Phos-tag acrylamide gel (Alpha Laboratories) and visualized by staining with InstantBlue Protein Stain.

Assay [1] addresses T3, R15A (Homo sapiens, UniProt O75807).
T3 construct: PPP1R15A amino acids 325-636 (R15A); His6 (C); made in house; host or cells: E. coli BL21 pLysS
As to the kind of experiment: Limited trypsin proteolysis of R15A (conformational change). Conditions: 100 μM compound, 0.5 μM R15A, 2.5 nM trypsin, 30 min to 3 h, 22° C. The method, then:
(§3) Reactions were allowed to proceed at 22° C. with shaking at 350 rpm. At time points 30 min, 1 h, 2 h or 3 h, 30 μl of sample was removed from the mix and digestion was stopped by addition of 10 μl of 16% SDS Laemmli sample buffer. Samples were run on 4-12% NuPAGE Bis-Tris gels (Life Technologies). Proteins were visualised by staining with InstantBlue Coomassie Protein Stain (Expedeon) protein stain.
(§4) Purified R15A and R15B were diluted to 3 μM in PBS, and incubated for 15′ at RT with 100 μM Raphin1, or DMSO vehicle. Reactions were initiated by addition of 5 nM of trypsin from bovine pancreas (Sigma), made up in PBS, and allowed to proceed for 5′ at 22° C., with shaking at 350 rpm. Digestion was stopped by addition of 4× Laemmli sample buffer and samples were run on 4-12% NuPAGE Bis-Tris gels (Life Technologies). Proteins were visualised by staining with InstantBlue Protein Stain.

The target in a further assay is T4, R15B (Homo sapiens, UniProt Q5SWA1).
T4 construct: PPP1R15B amino acids 340-698 (R15B); His6 (C); made in house; host or cells: E. coli BL21 pLysS
T4 sequence (Q5SWA1 340-698): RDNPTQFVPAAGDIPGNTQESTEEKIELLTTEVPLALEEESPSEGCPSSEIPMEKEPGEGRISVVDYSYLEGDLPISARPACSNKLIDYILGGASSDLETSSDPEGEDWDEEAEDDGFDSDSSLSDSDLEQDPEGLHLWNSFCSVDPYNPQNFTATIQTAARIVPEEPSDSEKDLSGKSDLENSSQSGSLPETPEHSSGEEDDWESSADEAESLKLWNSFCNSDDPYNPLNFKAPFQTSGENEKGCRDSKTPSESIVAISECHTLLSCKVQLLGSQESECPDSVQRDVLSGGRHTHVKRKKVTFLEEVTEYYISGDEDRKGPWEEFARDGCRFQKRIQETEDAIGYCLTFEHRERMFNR
As to the kind of experiment: Limited trypsin proteolysis of R15B (conformational change). Conditions: 100 μM compound, 0.5 μM R15B, 2.5 nM trypsin, 30 min to 3 h, 22° C. The procedure:
as §3, §4

The target of assay [2] is T3, R15A. As to the kind of experiment: Light scattering to monitor aggregation of R15A. Particulars: 5 μM R15A, 10 min, 20° C. The procedure:
Samples were incubated for 10 min at RT. […] Therefore, light scattering was measured at 380 nm emission, 380 nm absorption to monitor the presence of aggregates. For each sample, 100 data points were collected over a period of 10 min, at 20° C., with constant stirring.

For a further assay, the system named is HeLa cells. In words: Cytoprotection of HeLa cells from Tunicamycin (ER) stress. The format is cell-based. Conditions: 250 ng/ml Tunicamycin, 72 h. The procedure: HeLa cells (40,000 cells/ml) were plated in a 96-well plate and treated with different concentrations of compound, as indicated, or DMSO vehicle in the presence of 250 ng/ml Tunicamycin for 72 h. To monitor cell death, 1/2000 dilution of the CellTox green dye (Promega) was added to the media. The growth of the cells was monitored over time and pictures taken every 2 h with the IncuCyte ZOOM system and analysed by the IncuCyte ZOOM software (Essen BioScience). To compare different compounds and their cytoprotective effect, a growth ratio for each time point was calculated:
Growth ratio=(Phase confluency (%) at X hours)/(Phase confluency (%) at 0 hours)
The end point of the assay (72 h) was chosen for generating the graphs.

In another assay the target is T5, PP1c (Homo sapiens, UniProt P62136).
T5 construct: The cDNA encoding amino acids 7-330 of human PP1cα; made in house; host or cells: E. coli BL21/pGro7 (PP1c); E. coli BL21 pLysS (eIF2α)
T5 sequence (P62136 7-330): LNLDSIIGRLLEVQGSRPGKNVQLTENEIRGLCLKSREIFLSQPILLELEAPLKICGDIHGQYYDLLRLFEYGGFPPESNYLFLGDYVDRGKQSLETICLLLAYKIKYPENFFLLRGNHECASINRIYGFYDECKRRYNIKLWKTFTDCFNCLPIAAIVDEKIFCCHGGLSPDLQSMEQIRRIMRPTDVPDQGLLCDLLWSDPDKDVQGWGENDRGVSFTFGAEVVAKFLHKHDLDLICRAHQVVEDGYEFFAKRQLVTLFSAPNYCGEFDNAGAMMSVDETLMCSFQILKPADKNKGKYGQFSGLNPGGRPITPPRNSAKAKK
As to the kind of experiment: Dephosphorylation of P-eIF2α by increasing amounts of PP1c alone. The format is biochemical. Conditions: compound 100 μM, 30° C., 16 h. The method, then:
as §1, §2

For the next assay, the target named is eIF2α. As to the kind of experiment: Thermophoresis affinity measurement, binding to labelled P-eIF2α. Set-up: species or system human. The procedure:
Thermophoresis experiments were performed using a Monolith NT.115 instrument (NanoTemper Technologies). PP1c and P-eIF2α proteins were labeled using the Monolith NT Protein labelling Kit Red-NHS and stored for no longer than a month at −80° C. For thermophoresis, all protein dilutions were carried out in MST buffer (50 mM HEPES (pH 7.4), 100 mM NaCl, 0.1% Tween20, 2 mM MnCl2). Labelled proteins (100 nM) were mixed with equal volumes of serial dilutions of the unlabelled binding partner. In holophosphatase binding experiments, labelled P-eIF2 was diluted to 100 nM in MST buffer containing 10 μM regulatory subunit and then mixed as above with titrations of unlabelled PP1c. All experiments were carried out in enhanced grade capillaries, using 100% LED power and 100% IR-laser (on for 25 seconds (″)) at 20° C. NanoTemper Analysis 1.2.101 software was used to fit the data with a nonlinear solution of the law of mass action and KD values were determined. Each measurement was repeated in three independent experiments and KD values were averaged. Standard error of the mean (SEM) values are shown.

T3 sequence (O75807 325-636, stated change not applied): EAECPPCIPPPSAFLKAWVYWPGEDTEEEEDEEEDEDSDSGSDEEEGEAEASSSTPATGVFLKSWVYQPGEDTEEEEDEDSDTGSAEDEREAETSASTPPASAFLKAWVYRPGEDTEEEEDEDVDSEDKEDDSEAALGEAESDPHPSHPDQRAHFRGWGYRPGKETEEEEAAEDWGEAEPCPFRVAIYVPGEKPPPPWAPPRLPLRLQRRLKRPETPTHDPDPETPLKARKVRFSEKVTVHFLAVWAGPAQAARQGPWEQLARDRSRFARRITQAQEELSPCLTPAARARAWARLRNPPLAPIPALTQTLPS
T2 sequence (P62136 7-330 partner limits assumed, one chain of several): as the sequence (P62136 7-330) above
T1 sequence (O75807 325-636, stated change not applied): as the sequence (O75807 325-636, stated change not applied) above
T1 sequence (P62136 7-330 partner): as the sequence (P62136 7-330) above

As to `N=C(N)N/N=C/c1ncccc1Cl` [C3, (E)-2-((3-chloropyridin-2-yl)methylene)hydrazine-1-carboximidamide], the “inhibition of R15A-PP1c eIF2α holophosphatase” value on R15A-PP1c was “did not inhibit R15A-PP1 or R15B-PP1”. In addition, the “inhibition of R15B-PP1c eIF2α holophosphatase” value at R15B-PP1c was “did not inhibit R15A-PP1 or R15B-PP1”. Further, the “sensitivity of R15A to trypsin proteolysis” value at R15A [1] is given as “did not alter the protease sensitivity”. In addition, on R15B, the “sensitivity of R15B to trypsin proteolysis” value is reported as “did not alter the protease sensitivity”. The “aggregation of R15A (light scattering at 380 nm)” value at R15A [2] (1 mM compound) is listed as “No aggregation”. Moreover, the “cytoprotection from ER stress” value in the assay with HeLa cells is “inactive”.
For `O=C(/C=C/c1ccccc1)NC(NC(=S)Nc1cccc2cccnc12)C(Cl)(Cl)Cl` (stereo not shown) [Salubrinal], on PP1c, the “inhibition of PP1c alone” value is “inhibited PP1c”. Moreover, the “aggregation of R15A (light scattering at 380 nm)” value at R15A [2] (50 μM compound) was “induced robust aggregation”.
In turn, “PP1c^D95A: catalytically inactive D95A mutant of human PP1cα (amino acids 7-330)” had a Kd at eIF2α (20° C.) of approximately 650 nM.
Consider “R15B-PP1c^D95A: holophosphatase complex of R15B (PPP1R15B 340-698) with PP1c^D95A”, for which the “affinity for eIF2α relative to isolated PP1c^D95A” value in the assay on eIF2α (10 μM regulatory subunit) amounted to 3.0 times higher.
